The source of these data is patent publication US12029738B2, “Antiproliferative compounds and methods of use thereof” (Celgene Corporation, priority 2017, dated 2024).

The structures appear in SMILES notation. “Also recorded” adds a separate entry of the source. Like-named read-outs stand apart in the source and are kept apart here.

In one series the test system is SK-MM-2. Briefly: Flow cytometry proliferation/apoptosis assay (120 h). Format: cell-based, human. The settings on record: for IC50: Homo sapiens, SK-MM-2, read-out: Antiproliferative Activity (Flow Cytometry) IC50; for induced apoptosis AUC (area under the dose response curve): SKMM-2, scale 0-10000. As for the experimental part:
(§1) Methods. […] Using 5 mM stocks, compounds were pre-spotted into the appropriate wells of 96-well plates using a Hewlett-Packard D300 Digital Dispenser. Cells were added to 96-well plates using a Multidrop Combi Reagent Dispenser. After 5 days of treatment, flow cytometric analysis was used to determine the number of cells that were alive, dead, or apoptotic. After 5 days of treatment, cells were incubated with annexin V to stain exposed phosphatidylserine, an apoptotic cell-surface marker, and the vital dye 7-AAD, which is excluded from cells with intact cell membranes, and analyzed by flow cytometry (Attune®, Thermo Fisher). Analysis was then performed to determine the number of live cells (annexin V and 7-AAD double negative staining cells) and the percentage of apoptotic cells (annexin V positive cells) for each condition, relative to the DMSO control treated, was calculated. All described values were normalized to DMSO-only treated cells. All proliferation and apoptosis induction curves were processed and graphed as percent of control using XLFit (IDBS, Alameda, CA) and GraphPad Prism 7.03 (GraphPad Software, La Jolla, CA). The live cell count for every concentration was normalized to the DMSO control (considered as 100%) in Microsoft Excel to generate the proliferation curves. […] Similarly, for apoptosis analysis, the percentage of drug-induced apoptosis was calculated for all doses by combining both “early” (annexin V positive and 7-AAD negative) and “late” apoptosis (annexin V and 7-AAD positive) values and subtracting background values (cell treated with vehicle control DMSO). The AUC values for apoptosis curves were calculated by performing area under curve analysis on GraphPad Prism 7.03. The area under the dose-response curve (AUC) was calculated since it integrates potency and efficacy of the drugs to represent apoptosis into a single parameter. The IC50 values for Compound 2 and pomalidomide in the flow cytometry assays are presented Table 9.
(§2) The apoptosis induction effect of Compound 2 was assessed using flow cytometry after 120 h of treatment and compared with pomalidomide treatment. […] Each data point represents 2 independent experiments with at least two samples in each experiment. (Table 10).

A further series deals with CAG. The description is as above. The settings on record: for IC50: Homo sapiens, read-out: Antiproliferative Activity (Flow Cytometry) IC50; for induced apoptosis AUC (area under the dose response curve): scale 0-10000. Format: cell-based, human. The protocol:
as §1, §2

Another series has as its system RPMI-8226. The description is as above. Format: cell-based, human. The settings on record: for IC50: Homo sapiens, read-out: Antiproliferative Activity (Flow Cytometry) IC50; for induced apoptosis AUC (area under the dose response curve): scale 0-10000. As for the experimental part: as §1, §2
In a further series the test system is OPM2-P10. The description is as above. Format: cell-based, human. The settings on record: for IC50: Homo sapiens, read-out: Antiproliferative Activity (Flow Cytometry) IC50; for induced apoptosis AUC (area under the dose response curve): scale 0-10000. The protocol:
as §1, §2

The next series relates to MM cell lines. Briefly: Daratumumab-mediated ADCP assay. Format: cell-based, human. The settings on record: for daratumumab-mediated ADCP: ARH-77 cell line. As for the experimental part:
ADCP assay: The effect of Compound 2 or pomalidomide on daratumumab-mediated ADCP was determined in a panel of MM cell lines. Monocytes were plated in a 96 well plate at 40,000 cells per well in 100 μL volume of complete AIM-V media containing 50 ng/mL of M-CSF. The cells were allowed to settle onto the plate for 15 minutes at room temperature before placing into 37° C., 5% C02 incubator for 9 days to allow for differentiation into macrophages. The culture media was replenished with fresh complete media every 3-4 days. On the morning of the ADCP assay, the macrophages were serum starved for 2-4 hours at 37° C., 5% C02 before co-culturing with the MM cells. The MM cells were pretreated with sub-lethal concentrations of Compound 2 or pomalidomide for 72 h. On the day of the assay, the MM cells were washed with PBS and labeled with CSFE for 15 minutes. The reaction was stopped with an equal volume of 20% FBS. The cells were washed twice with PBS and resuspended in AIM-V media at 1.6×10^6 cells/mL. Then 50 μL of MM cells was mixed with 50 μL of 2 μg/mL daratumumab for 10 minutes at room temperature before adding to the serum starved macrophages. Each condition was assayed in triplicate. The final volume of the assay was 200 μL containing 10% human serum with an effector to target ratio of […]. The plate was spun at 500 rpm for 1 minute followed by incubation at 37° C., 5% CO2 for 3 h. At the end of the incubation, the plate was washed with 100 μL of PBS and the remaining cells were stained with anti-CD14 and anti-CD138 to identify the macrophages and MM cells, respectively. The plate was washed and the wells were filled with 100 μL of PBS. The macrophages were detached from the bottom of the wells with the addition of 50 μL of 0.25% trypsin. The samples were neutralized with the addition of 50 μL of complete AIM-V media. The samples were analyzed on flow cytometer. The percent phagocytosis was determined by the CSFE/CD14 double positive cells divided by the total number of CD14+ cells times 100.

The target in another series is T1, CYP2C9 (Homo sapiens, UniProt P11712).
T1 construct: from tissue; host or cells: pooled human liver microsomes
T1 sequence (P11712 whole entry): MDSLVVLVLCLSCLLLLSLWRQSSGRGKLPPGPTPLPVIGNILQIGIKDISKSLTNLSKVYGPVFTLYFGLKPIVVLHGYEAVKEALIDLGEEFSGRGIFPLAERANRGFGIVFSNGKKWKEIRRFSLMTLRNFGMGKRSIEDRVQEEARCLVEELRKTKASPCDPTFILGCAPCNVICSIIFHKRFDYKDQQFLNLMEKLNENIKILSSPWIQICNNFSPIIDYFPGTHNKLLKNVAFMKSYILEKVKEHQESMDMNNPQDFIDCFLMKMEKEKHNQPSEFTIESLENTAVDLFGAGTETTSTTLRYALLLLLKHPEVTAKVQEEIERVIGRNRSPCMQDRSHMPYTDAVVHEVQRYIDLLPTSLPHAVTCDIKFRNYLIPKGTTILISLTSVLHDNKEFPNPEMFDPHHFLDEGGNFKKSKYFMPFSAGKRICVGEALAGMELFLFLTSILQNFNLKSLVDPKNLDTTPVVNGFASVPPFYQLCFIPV
Briefly: CYP inhibition in pooled human liver microsomes. Format: in vitro ADME. As for the experimental part: (§3) Methods. […] In addition, the compounds were evaluated for their potential to act as a time-dependent inhibitors at the same concentrations mentioned above. […] In addition to appropriate vehicle controls, known direct inhibitors and time-dependent inhibitors of CYP isoforms were included as positive controls. Following the incubation, concentrations of probe substrate metabolites were quantified using established LC/MS/MS methods. The extent of inhibition was expressed as the percentage of control activity.

Another series relates to CYP3A4/5. Briefly: CYP inhibition in pooled human liver microsomes. Format: in vitro ADME. As for the experimental part:
as §3

For the next series, the target named is T2, CYP2B6 (Homo sapiens, UniProt P20813).
T2 construct: from tissue; host or cells: pooled human liver microsomes
T2 sequence (P20813 1-491): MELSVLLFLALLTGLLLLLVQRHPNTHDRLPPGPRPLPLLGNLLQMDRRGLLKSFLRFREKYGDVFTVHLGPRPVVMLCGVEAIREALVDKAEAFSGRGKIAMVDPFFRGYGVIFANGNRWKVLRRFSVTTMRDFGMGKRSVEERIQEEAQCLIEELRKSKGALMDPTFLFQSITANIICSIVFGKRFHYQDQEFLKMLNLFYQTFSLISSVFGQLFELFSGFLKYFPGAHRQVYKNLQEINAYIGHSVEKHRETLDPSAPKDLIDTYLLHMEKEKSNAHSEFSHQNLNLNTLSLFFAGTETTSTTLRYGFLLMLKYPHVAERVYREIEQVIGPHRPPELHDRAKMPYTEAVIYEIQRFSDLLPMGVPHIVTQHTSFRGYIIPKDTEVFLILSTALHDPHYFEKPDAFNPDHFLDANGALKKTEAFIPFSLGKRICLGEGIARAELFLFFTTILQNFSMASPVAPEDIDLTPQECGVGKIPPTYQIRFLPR
Briefly: CYP inhibition in pooled human liver microsomes. Format: in vitro ADME. As for the experimental part: as §3

The next series deals with T3, CYP2C19 (Homo sapiens, UniProt P33261).
T3 construct: from tissue; host or cells: pooled human liver microsomes
T3 sequence (P33261 whole entry): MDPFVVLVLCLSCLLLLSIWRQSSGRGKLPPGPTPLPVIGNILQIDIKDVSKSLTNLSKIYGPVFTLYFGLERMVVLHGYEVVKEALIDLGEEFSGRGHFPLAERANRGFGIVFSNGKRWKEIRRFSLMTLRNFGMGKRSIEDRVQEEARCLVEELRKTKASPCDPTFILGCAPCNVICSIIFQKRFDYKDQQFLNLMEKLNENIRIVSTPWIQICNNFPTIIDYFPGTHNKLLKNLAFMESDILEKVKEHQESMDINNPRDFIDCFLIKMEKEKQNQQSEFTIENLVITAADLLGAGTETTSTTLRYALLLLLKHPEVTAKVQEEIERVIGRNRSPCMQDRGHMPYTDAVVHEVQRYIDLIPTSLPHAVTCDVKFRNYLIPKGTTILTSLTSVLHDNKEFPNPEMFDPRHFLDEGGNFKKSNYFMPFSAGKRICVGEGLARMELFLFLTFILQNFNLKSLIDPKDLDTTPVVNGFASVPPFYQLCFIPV
Briefly: CYP inhibition in pooled human liver microsomes. Format: in vitro ADME. As for the experimental part: as §3

Setting [1] is: up to 30 μM, 30 minute preincubation with or without NADPH.
[2] abbreviates: up to / at 30 μM, human liver microsomes.

Consider `N#Cc1ccc(N2CCN(Cc3ccc(COc4cccc5c4CN([C@H]4CCC(=O)NC4=O)C5=O)cc3)CC2)c(F)c1` [Compound 2, (S)-4-(4-(4-(((2-(2,6-dioxopiperidin-3-yl)-1-oxoisoindolin-4-yl)oxy)methyl)benzyl)piperazin-1-yl)-3-fluorobenzonitrile], for which the IC50 in the series with SK-MM-2 was 0.00082 µM; with CAG, 0.00012 µM; with RPMI-8226, 0.00075 µM; with OPM2-P10 it was 0.00181 µM; in the series on CYP3A4/5 (human, microsomes), over 30 µM; against CYP2C19, over 30 µM. The “induced apoptosis AUC (area under the dose response curve)” value in the series with SK-MM-2 was 3204; in the series with CAG, 5804; in the series with RPMI-8226, 3245; in the series with OPM2-P10, 1768. Further, in the series with MM cell lines (72 h pretreatment, macrophages E:T 2:1), the “daratumumab-mediated ADCP of pretreated MM cells” value is “more sensitive to daratumumab-mediated ADCP compared to untreated and pomalidomide treated cells”. Also, the “daratumumab-mediated ADCP” value in the series on MM cell lines is listed as “no enhanced ADCP”. Further, the inhibition at 30 µM on CYP2C9 (human, microsomes) was at most 30%; in the series with CYP3A4/5 (human, microsomes, direct inhibition of CYP3A4/5 (testosterone)), 46%; in the series with CYP3A4/5 (human, microsomes, inhibition of CYP3A4/5 (testosterone) activity after preincubation with NADPH), 59%; with CYP3A4/5 (human, microsomes, inhibition of CYP3A4/5 (testosterone) activity after preincubation without NADPH) it was 23%; on CYP2B6 (human, microsomes), at most 30%; at CYP2C19 (human, microsomes) it was 41%.
As for `O=C1CC[C@H](N2Cc3c(OCc4ccc(CN5CCN(c6ccc(F)cc6F)CC5)cc4)cccc3C2=O)C(=O)N1` [Compound B], the “time-dependent inhibition of CYP2C9” value on CYP2C9 (setting [1]) is on record as “little to no time-dependent inhibition; also recorded: not a time-dependent inhibitor”. Also, on CYP2C9 (setting [2]), the “direct inhibition of CYP2C9” value was 38%. Also, the IC50 in the series on CYP3A4/5 (30 minute preincubation with NADPH, substrate midazolam, read-out: shifted IC50 value (with NADPH) CYP3A4/5, midazolam) stood at 2.23 µM; with CYP3A4/5 (30 minute preincubation with NADPH, substrate testosterone, read-out: shifted IC50 value (with NADPH) CYP3A4/5, testosterone), 1.93 µM; with CYP3A4/5 (substrate testosterone, read-out: direct inhibition IC50 CYP3A4/5 (testosterone)), 2.92 µM. Further, the “time-dependent inhibition of CYP3A4/5 (overall finding)” value in the series on CYP3A4/5 (up to 30 μM, 30 minute preincubation) is listed as “inhibited CYP3A4/5 in a time-dependent manner; also recorded: time-dependent inhibitor of CYP3A4/5”. Moreover, in the series with CYP3A4/5 (up to 30 μM, substrate midazolam), the “direct inhibition of CYP3A4/5 (midazolam)” value is recorded as “up to 30%”. Moreover, the “time-dependent inhibition of CYP2B6” value at CYP2B6 (setting [1]) is recorded as “little to no time-dependent inhibition; also recorded: not a time-dependent inhibitor”. In addition, the “direct inhibition of CYP2B6” value on CYP2B6 (setting [2]) is reported as 59%. The “direct inhibition of CYP2C19” value at CYP2C19 (at 30 μM, human liver microsomes) was determined as 45%. The “time-dependent inhibition of CYP2C19” value at CYP2C19 (setting [1]) is “little to no time-dependent inhibition; also recorded: not a time-dependent inhibitor”.
With `Nc1cccc2c1C(=O)N(C1CCC(=O)NC1=O)C2=O` (centres unmarked) [Pomalidomide, pomalidomide], the IC50 in the series on SK-MM-2 was over 10 µM; in the series with CAG, 1.08 µM; in the series with RPMI-8226, over 10 µM; in the series on OPM2-P10, over 10 µM. For the same compound, the “induced apoptosis AUC (area under the dose response curve)” value with SK-MM-2 came out at 1033; in the series on CAG it was 1561; with RPMI-8226, 1369; in the series with OPM2-P10 it was 108.7. Besides, the “daratumumab-mediated ADCP” value with MM cell lines is “no enhanced ADCP”.
